Results published in PubChem BioAssay (NCI).
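In this assay, cells in 96-well plates receive the compound at five concentrations for 48 hours. Endpoints are linearly interpolated between the surrounding concentrations. Abbreviation: GI50, concentration required for 50% inhibition of growth. At the TGI there is no net growth.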

Key:
Experiment in all cases: growth of human tumour cells (NCI), 48 h
HCT-116 colon = test system: HCT-116 colon
ACHN renal = test system: ACHN renal
HOP-62 NSCLC = test system: HOP-62 NSCLC
EKVX NSCLC = test system: EKVX NSCLC
NCI-H460 lung = test system: NCI-H460 lung
SF-539 CNS = test system: SF-539 CNS
OVCAR-8 ovarian = test system: OVCAR-8 ovarian
MOLT-4 leukemia = test system: MOLT-4 leukemia
BT-549 breast = test system: BT-549 breast
NCI/ADR-RES ovarian = test system: NCI/ADR-RES ovarian

Compound	TGI (HCT-116 colon)	TGI (ACHN renal)	TGI (HOP-62 NSCLC)	TGI (EKVX NSCLC)	TGI (NCI-H460 lung)	TGI (SF-539 CNS)	TGI (OVCAR-8 ovarian)	TGI (MOLT-4 leukemia)	GI50 (HCT-116 colon)	GI50 (BT-549 breast)	TGI (BT-549 breast)	GI50 (ACHN renal)	GI50 (HOP-62 NSCLC)	GI50 (EKVX NSCLC)	GI50 (NCI-H460 lung)	GI50 (NCI/ADR-RES ovarian)	TGI (NCI/ADR-RES ovarian)	GI50 (OVCAR-8 ovarian)	GI50 (MOLT-4 leukemia)	GI50 (SF-539 CNS)
O=C(/C=C/c1ccccc1)Oc1cccc2cccnc12	10.9 µM	> 100 µM	> 100 µM	> 68.2 µM	35.4 µM	30.5 µM	> 62.2 µM	> 51.1 µM												
C/C=C/C(C#N)O[Si](C)(C)C (stereo not given)	> 100 µM	> 100 µM	> 100 µM	> 100 µM	> 100 µM	> 100 µM	> 100 µM	> 100 µM												
Cc1nc(C(N)=O)c(N)n1CCN1CCN(C(=O)CCCCCCCCCCNC2N=CNc3nc[nH]c32)CC1 (stereo not given)	> 100 µM	> 100 µM	> 100 µM		> 100 µM	> 100 µM	> 100 µM	47.6 µM												
COC1=NCc2ccccc2-c2ccccc21	> 100 µM	> 100 µM			> 100 µM	> 100 µM	> 100 µM	> 100 µM												
N#CC(N)=Nc1ccccc1	> 100 µM	> 100 µM	> 100 µM	> 100 µM	> 100 µM	> 100 µM	> 100 µM	> 100 µM												
CN1N=CSC12C(=O)N(c1ccccc1)C(=O)N2c1ccccc1 (stereo not given)	> 100 µM	> 100 µM	> 100 µM	> 100 µM	> 100 µM	> 100 µM	> 100 µM	> 100 µM												
Cc1c(/C=N/NC(=O)c2ccccc2O)c(=O)n(-c2ccccc2)n1C	> 100 µM	> 100 µM	> 100 µM	> 100 µM	> 100 µM	> 100 µM	> 100 µM	> 100 µM												
COC(=O)/C(=N\NC(C)(C)C)C(C(=O)OC)C(=O)C(=O)Nc1cc(Cl)ccc1Cl (stereo not given)	> 100 µM	> 100 µM	> 100 µM	> 100 µM	> 100 µM	> 100 µM	> 100 µM	> 100 µM												
CN(C(=O)/C=C/c1ccccc1)C1C2CN3CCC(O2)C13 (stereo not given)	> 100 µM	> 100 µM	> 100 µM	> 100 µM	> 100 µM	> 100 µM	> 100 µM	> 100 µM												
Cn1c(=O)c(N=Nc2c(=O)n(C)c(=O)n3c2[nH]c2ccccc23)c2[nH]c3ccccc3n2c1=O	> 100 µM	> 100 µM	> 100 µM	> 100 µM	> 100 µM	> 100 µM	> 100 µM													
COC(=O)C1=CO[C@@H](OC2CC(CO)C(O)C(O)C2O)[C@@H]2[C@@H](C)[C@@H](OC(=O)/C=C/c3ccccc3)[C@@H](O)[C@H]12 (stereo not given in full) (tested in a mixture with another compound)	> 100 µM	> 100 µM	> 100 µM	> 100 µM		> 100 µM	> 100 µM	> 100 µM												
O=C(Oc1cccnc1)c1cccnc1Nc1ccnc(C(F)(F)F)c1	3.71 µM	66 µM	36 µM	> 100 µM	> 100 µM		> 100 µM	23.8 µM	1.76 µM	5.2 µM	> 100 µM	21.7 µM	13.7 µM	51.3 µM	40.4 µM	> 100 µM	> 100 µM	64.9 µM	3.87 µM	
Nc1ncnc2c1ncn2C1OC(CSCC(F)(F)F)C(O)C1O (stereo not given)	> 100 µM	> 100 µM	> 100 µM	> 100 µM	> 100 µM	> 100 µM	> 100 µM	> 100 µM												
CN(C)CCNC(=O)Cn1ccc(=O)c2cc([N+](=O)[O-])ccc21	> 100 µM	> 100 µM	> 100 µM	> 100 µM	> 100 µM	> 100 µM		> 100 µM									> 100 µM			
O=C(O)CCNS(=O)(=O)c1ccc(NC(=O)c2ccccc2)cc1		> 100 µM		> 100 µM	> 100 µM	> 100 µM	> 100 µM	> 100 µM												
C/C(CC(O)(C(F)(F)F)C(F)(F)F)=N\NC(N)=O	> 10 µM	> 10 µM	> 10 µM	> 10 µM	> 10 µM	> 10 µM	> 10 µM	> 10 µM									> 10 µM			
O=C(NCCCOC(=O)CCCCCCCCC(=O)OCCCNC(=O)NC(=O)c1c[nH]c(=O)[nH]c1=O)NC(=O)c1c[nH]c(=O)[nH]c1=O	> 100 µM	> 100 µM	> 100 µM	> 100 µM	> 100 µM	> 100 µM	> 100 µM	> 100 µM												
O=C(COc1ccccc1Cl)N1N=C(c2ccc(Cl)cc2)CC1(O)c1ccccc1 (stereo not given)	> 100 µM	> 100 µM	> 100 µM		> 100 µM	> 100 µM	> 100 µM	> 100 µM												

Compound	TGI (HCT-116 colon)	TGI (ACHN renal)	TGI (HOP-62 NSCLC)	TGI (EKVX NSCLC)	TGI (NCI-H460 lung)	TGI (SF-539 CNS)	TGI (OVCAR-8 ovarian)	TGI (MOLT-4 leukemia)	GI50 (HCT-116 colon)	GI50 (BT-549 breast)	TGI (BT-549 breast)	GI50 (ACHN renal)	GI50 (HOP-62 NSCLC)	GI50 (EKVX NSCLC)	GI50 (NCI-H460 lung)	GI50 (NCI/ADR-RES ovarian)	TGI (NCI/ADR-RES ovarian)	GI50 (OVCAR-8 ovarian)	GI50 (MOLT-4 leukemia)	GI50 (SF-539 CNS)
C[N+](C)(C)CCC(=O)CC[N+](C)(C)C	33.7 µM	31.3 µM	> 100 µM	> 100 µM	76.9 µM	41 µM	44 µM	19.5 µM												
C=C(c1ccccc1)C1(O)CCCCC1N (stereo not given)	> 100 µM	> 100 µM	> 100 µM	> 100 µM	> 100 µM	> 100 µM	> 100 µM	> 100 µM												
CCSCCCSCCSCC	> 100 µM		> 100 µM	> 100 µM	> 100 µM	> 100 µM	> 100 µM	84.5 µM			> 100 µM									
COc1ccc2nccc(C3=CCC4CCN(C(=O)c5ccccc5)C3C4)c2c1 (stereo not given)	> 100 µM		> 100 µM	> 100 µM	> 100 µM	> 100 µM	> 100 µM	> 100 µM												
Cn1ccnc1CCc1c(Cl)cccc1Cl	> 100 µM	> 100 µM	> 100 µM		> 100 µM	> 100 µM	> 100 µM	> 100 µM												
COc1cccc(-c2nc3cc(NC(=O)c4ccc(Cl)c(C#N)c4)ccc3o2)c1	3.47 µM		> 100 µM		4.91 µM	3.37 µM		> 100 µM	1.8 µM				12.9 µM		2.12 µM	1.42 µM	4.31 µM		> 100 µM	1.68 µM
O=C(N/N=C/c1ccccc1O)N/N=C/c1ccccc1O	> 100 µM	> 100 µM	> 100 µM	> 100 µM	> 100 µM	> 100 µM	> 100 µM	> 100 µM												
COc1cc(Cl)cc(=O)c(O)c1OC	> 100 µM	> 100 µM	> 100 µM	> 91.8 µM	> 100 µM	> 100 µM	> 100 µM	> 100 µM												
COC(=O)c1sc(C(=O)OC)c2c1CS(=O)C2	> 100 µM			> 100 µM		> 100 µM	> 100 µM	> 100 µM												
Cc1c(OC(C)C(=O)O)ccc2c(-c3ccccc3)cc(=O)oc12 (stereo not given)	> 100 µM	> 100 µM	> 100 µM	> 100 µM	> 100 µM	> 100 µM	> 100 µM	> 100 µM												
CCc1c(C#N)c(=O)[nH]c(=O)n1CCN1CCN(C(=O)NCCCCCCNC(=O)N2CCN(CCn3c(CC)c(C#N)c(=O)[nH]c3=O)CC2)CC1	> 100 µM	> 100 µM	> 100 µM	> 100 µM	> 100 µM	> 100 µM	> 100 µM	> 100 µM												
Cc1cc2c(C)nn(Cc3ccccc3)c2c(C(=O)O)c1C	> 100 µM	> 100 µM	> 100 µM	> 100 µM		> 100 µM	> 100 µM	> 100 µM												
CCOC(=O)NC(=O)c1cn(CCN2CCN(C(=O)NCCCCCCNC(=O)N3CCN(CCn4cc(C(=O)NC(=O)OCC)c(=O)[nH]c4=O)CC3)CC2)c(=O)[nH]c1=O	> 100 µM	> 100 µM	> 100 µM	> 100 µM	> 100 µM	> 100 µM	> 100 µM													
O=C1Nc2ccccc2C1(O)C/C(=N/O)c1ccc2ccccc2c1 (stereo not given)	> 100 µM	> 100 µM	> 100 µM	> 100 µM	> 100 µM	> 100 µM	> 100 µM	> 100 µM												
CC[O-].CC[O-].O=C([CH-]C(=O)c1ccccc1)CCCCCCCCC(=O)[CH-]C(=O)c1ccccc1.[Ti+4]		> 100 µM	> 100 µM	> 100 µM	> 100 µM		> 100 µM	> 100 µM				> 100 µM	> 100 µM	> 100 µM	> 100 µM			52.1 µM	53.9 µM	
CCc1cccc(C)c1NS(=O)(=O)c1ccccc1	> 100 µM	> 100 µM	> 100 µM	> 100 µM	> 100 µM	> 100 µM	> 100 µM	> 100 µM												
CCOC(=O)Cc1nc2ccc3c(c2[nH]c1=O)C(=O)c1ccccc1C3=O	> 100 µM	> 100 µM	> 100 µM	28.5 µM	> 100 µM	> 100 µM	> 100 µM	54.2 µM												
c1cc[c]([Sn][c]2ccccc2)cc1	37.7 µM	69.8 µM	> 100 µM	> 61.2 µM	20.2 µM	45.5 µM	58.8 µM	60.3 µM	18.2 µM			27.2 µM	53.1 µM	28.3 µM	14 µM			24 µM	19.2 µM	23.3 µM
